Test results reported in patent publication US10494332B2, “Protein tyrosine phosphatases or SHP2 inhibitors and uses thereof” (Indiana University Research and Technology Corporation, priority 2015, dated 2019).
Values joined by “and” are separate entries in the source; they are usually repeats but may differ in a detail not shown here. Identical values can stand only once. “Also recorded” adds a separate entry of the source. Like-named read-outs stand apart in the source and are kept apart here.

Legend:
SHP2 [1] = target: T1, SHP2 (Homo sapiens, UniProt Q06124); test: SHP2 phosphatase inhibition assay (pNPP); assay type: biochemical; conditions: for Fold selectivity for SHP2 against PTPs examined: cefsulodin: with the exception of SHP1; for Mode of SHP2 inhibition: with respect to pNPP
T1 sequence (Q06124 224-528): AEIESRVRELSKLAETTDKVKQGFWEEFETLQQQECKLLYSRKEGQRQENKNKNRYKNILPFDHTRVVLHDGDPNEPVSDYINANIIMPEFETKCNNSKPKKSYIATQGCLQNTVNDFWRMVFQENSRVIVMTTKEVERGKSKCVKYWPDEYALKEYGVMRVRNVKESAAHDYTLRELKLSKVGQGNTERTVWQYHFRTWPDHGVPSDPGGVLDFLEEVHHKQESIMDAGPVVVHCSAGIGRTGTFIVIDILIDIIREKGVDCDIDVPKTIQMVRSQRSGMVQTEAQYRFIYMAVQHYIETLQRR

PTPμ = PTPμ (Homo sapiens, UniProt P28827); test: biochemical
PTPμ, sequence (P28827 21-1452): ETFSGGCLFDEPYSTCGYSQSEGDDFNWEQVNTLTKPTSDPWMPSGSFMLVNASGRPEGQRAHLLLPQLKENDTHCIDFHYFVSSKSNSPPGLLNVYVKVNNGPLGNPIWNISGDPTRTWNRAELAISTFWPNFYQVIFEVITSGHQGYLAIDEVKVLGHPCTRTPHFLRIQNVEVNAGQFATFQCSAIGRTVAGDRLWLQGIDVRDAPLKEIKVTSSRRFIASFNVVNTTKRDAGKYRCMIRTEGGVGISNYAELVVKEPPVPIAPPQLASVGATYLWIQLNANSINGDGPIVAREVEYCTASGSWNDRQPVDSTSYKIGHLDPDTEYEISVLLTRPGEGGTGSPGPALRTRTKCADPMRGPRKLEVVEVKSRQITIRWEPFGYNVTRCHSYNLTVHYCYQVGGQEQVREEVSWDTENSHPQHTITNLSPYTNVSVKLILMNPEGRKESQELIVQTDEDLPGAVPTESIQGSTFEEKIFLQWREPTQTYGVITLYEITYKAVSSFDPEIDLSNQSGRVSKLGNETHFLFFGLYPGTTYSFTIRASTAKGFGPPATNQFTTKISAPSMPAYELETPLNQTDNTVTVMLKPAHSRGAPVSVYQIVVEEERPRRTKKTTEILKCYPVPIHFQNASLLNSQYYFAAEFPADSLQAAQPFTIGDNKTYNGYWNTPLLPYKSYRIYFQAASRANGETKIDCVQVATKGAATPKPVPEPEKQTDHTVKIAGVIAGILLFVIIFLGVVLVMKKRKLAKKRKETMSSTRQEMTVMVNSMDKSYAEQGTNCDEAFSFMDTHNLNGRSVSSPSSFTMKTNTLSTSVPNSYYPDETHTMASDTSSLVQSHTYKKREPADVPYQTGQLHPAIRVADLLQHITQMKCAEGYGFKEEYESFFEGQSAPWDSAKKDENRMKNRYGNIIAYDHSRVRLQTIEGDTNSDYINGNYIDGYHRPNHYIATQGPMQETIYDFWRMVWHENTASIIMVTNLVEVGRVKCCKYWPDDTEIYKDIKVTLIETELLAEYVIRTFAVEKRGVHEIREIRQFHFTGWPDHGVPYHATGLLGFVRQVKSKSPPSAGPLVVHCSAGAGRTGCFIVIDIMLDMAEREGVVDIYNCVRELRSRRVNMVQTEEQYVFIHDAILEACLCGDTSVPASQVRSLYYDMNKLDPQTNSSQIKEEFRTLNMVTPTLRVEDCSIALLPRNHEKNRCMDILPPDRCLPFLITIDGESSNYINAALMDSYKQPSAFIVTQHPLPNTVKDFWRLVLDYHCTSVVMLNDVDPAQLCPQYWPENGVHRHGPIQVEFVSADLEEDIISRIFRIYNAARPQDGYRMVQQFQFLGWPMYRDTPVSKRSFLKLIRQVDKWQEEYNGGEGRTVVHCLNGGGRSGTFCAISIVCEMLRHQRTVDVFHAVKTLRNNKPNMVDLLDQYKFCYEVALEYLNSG

[2] = tested on: H1975 non-small cell lung cancer (NSCLC) cell line; test: MTT cell proliferation assay; assay type: cell-based, human; conditions: 20 μM and 40 μM, 2 days
Procedure: (§1) Human non-small cell lung carcinoma cell line H1975 was cultured at 37° C. and 5% CO2 in RPMI-1640 (Corning) supplemented with 10% fetal bovine serum (HyClone). Human breast cancer cell line MDA-MB-231 was cultured in DMEM supplemented with 10% fetal bovine serum. For cell proliferation assay, 2˜3×10^3 cells were seeded in each well of 96-well plates. After treating cells with compounds for 2 days, cells were incubated with 50 μg/ml MTT (3-(4,5-Dimethylthiazol-2-yl)-2,5-diphenyltetrazolium bromide) for ˜3-4 hours. Then, the culture medium was removed, DMSO was added to dissolve the formazan crystals. Wells containing only media were used for background correction. The optical density was measured spectrophotometrically at 540 nm. For signaling analysis, cells were serum-starved overnight followed by treatment with vehicle or compounds for 3 hours, and then either left un-stimulated or stimulated with 5 μg/ml EGF or 10 nM PMA (Sigma) for indicated time. Cells were lysed and the lysates were electrophoresed on a 10% polyacrylamide gel, and then transferred to a nitrocellulose membrane, and probed with anti-phospho-ERK1/2 and anti-ERK1/2 (Cell Signaling) antibodies followed by incubation with horseradish peroxidase-conjugated secondary antibodies. The blots were developed by the enhanced chemiluminescence technique using the SuperSignal West Pico Chemiluminescent substrate (Pierce).

[3] = tested on: MDA-MB-231 breast cancer cell line; test: MTT cell proliferation assay; assay type: cell-based, human; conditions: 20 μM and 40 μM, 2 days
Procedure: as §1

[4] = tested on: ERK1/2 phosphorylation in SKBR3 cells; test: ERK1/2 immunoblot of cells recovered from Matrigel; assay type: cell-based; conditions: 5 days
Procedure: (§2) Approximately 300,000 SKBR3 cells were seeded into 150 μL of growth factor reduced Matrigel (BD) that was then covered with 2 mLs of media containing either 20 μL vehicle (DMSO) or the indicated concentrations of compound 2. Cells were then imaged at 24-hour intervals using a NIKON SMZ1500 stereomicroscope. After 5 days the cells were recovered from the Matrigel by the following method. Media was aspirated and cells were washed with 500 μL of cold PBS. 150 μL of RIPA lysis buffer supplemented with ProteCEASE-50. EDTA Free protease inhibitors (GBiosciences) was added to the Matrigel. Cells were scraped into a slurry and instantly frozen using dry ice for 5 minutes. After thawing tubes were spun down at 4° C. for 10 minutes at 14K rpm. Proteins were then resolved by SDS-PAGE and the relative levels of total and phospho-ERK1/2 were detected by immunoblot analysis.

[5] = tested on: PMA-stimulated ERK1/2 phosphorylation; test: PMA-induced ERK1/2 phosphorylation immunoblot; assay type: cell-based, human
Procedure: as §1

PP5 = target: T2, PP5 (Homo sapiens, UniProt P53041); test: biochemical
T2 sequence (P53041 1-499): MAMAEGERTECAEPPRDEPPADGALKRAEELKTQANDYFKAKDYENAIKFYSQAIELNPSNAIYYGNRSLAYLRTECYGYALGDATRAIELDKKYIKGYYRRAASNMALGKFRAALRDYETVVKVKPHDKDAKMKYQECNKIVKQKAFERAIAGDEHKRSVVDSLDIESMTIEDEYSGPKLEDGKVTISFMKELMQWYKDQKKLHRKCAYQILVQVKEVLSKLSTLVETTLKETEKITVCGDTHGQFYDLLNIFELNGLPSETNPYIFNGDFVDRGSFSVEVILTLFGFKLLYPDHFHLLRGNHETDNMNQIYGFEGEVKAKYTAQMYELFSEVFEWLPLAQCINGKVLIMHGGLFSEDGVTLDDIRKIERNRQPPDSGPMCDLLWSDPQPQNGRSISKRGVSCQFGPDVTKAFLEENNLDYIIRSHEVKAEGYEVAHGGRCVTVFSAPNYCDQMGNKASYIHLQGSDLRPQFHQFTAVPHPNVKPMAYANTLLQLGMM

SKBR3 cells = test: Cell growth in 3D Matrigel; assay type: cell-based; conditions: 5 days
Procedure: as §2

[6] = tested on: EGF-mediated ERK1/2 phosphorylation in H1975 cells; test: EGF-induced ERK1/2 phosphorylation immunoblot; assay type: cell-based, human; conditions: compound 7 at 40 μM
Procedure: as §1

[7] = tested on: M. tuberculosis (Erdman and H37Rv) in J774 macrophages; test: Macrophage assay: growth of M. tuberculosis in IFN-γ activated J774 macrophages; assay type: cell-based, Mycobacterium tuberculosis
M. tuberculosis Erdman = test: Microplate Alamar Blue assay (MABA) MIC; assay type: cell-based; conditions: Mycobacterium tuberculosis, minimum inhibitory concentration, read-out: In vitro anti-Mtb activity MABA-MIC Erdman
M. tuberculosis H37Rv = test: Microplate Alamar Blue assay (MABA) MIC; assay type: cell-based, Mycobacterium tuberculosis
[8] = Pharmacokinetics and bioavailability in guinea pigs; assay type: in vivo, guinea pig; conditions: oral
Procedure: All drugs were suspended in 1% DMSO, 0.5% DEA, 48.5% PEG 400, and 50% water. Blood was collected for analysis of these drugs in plasma pre-dose and at 1, 4, 8, 24, and 48 h post-dose. Plasma was separated and stored at −70° C. until analysis. Plasma drug concentrations were determined by liquid chromatography-mass spectrometry and liquid chromatography-tandem mass spectrometry over the concentration range of 0.005-1 mg/L with dilution to 10 mg/L. Pharmacokinetic variables were calculated from individual drug concentration-time data using non-compartmental methods as implemented in WinNonlin version 5.0 (Pharsight, Mountain View, Calif.) as described earlier.

SHP2/R362A = SHP2/R362A (Homo sapiens, UniProt Q06124, R362A); test: SHP2 mutant inhibition assay (pNPP); assay type: biochemical
SHP2/R362A, sequence (Q06124 224-528 R362A): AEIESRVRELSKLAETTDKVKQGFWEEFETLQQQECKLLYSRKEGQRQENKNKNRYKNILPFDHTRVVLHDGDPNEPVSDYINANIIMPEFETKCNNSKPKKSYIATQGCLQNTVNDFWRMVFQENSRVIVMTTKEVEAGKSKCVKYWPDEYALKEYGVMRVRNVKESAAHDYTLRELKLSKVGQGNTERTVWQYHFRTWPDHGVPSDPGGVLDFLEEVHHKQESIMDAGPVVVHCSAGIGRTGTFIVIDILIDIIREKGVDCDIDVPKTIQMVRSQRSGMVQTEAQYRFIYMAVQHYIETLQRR

[9] = Stability in buffer solutions by LC-MS; assay type: physicochemical
Procedure: (§3) Agilent Technologies 6130 quadrupole LC-MS instrument was used for the LC-MS studies. A C18 reserved phase column (phenomenex, 50×4.6 mm) was used as stationary phase, water and methanol (both containing 0.1% formic acid) were used as mobile phase (gradient: 0-100% methanol, flow 0.8 mL/min, run time 15 minutes), and UV absorbance at the fixed wavelength of 254 nm and positive and negative ESI-MS data were recorded. The sample was adjusted to have a concentration at 0.1 mg/mL, and the injection volume of each sample was 0.2 μL. The retention time and corresponding ESI-MS data were used as identity of molecules.

SHP2/E508A = SHP2/E508A (Homo sapiens, UniProt Q06124, E508A); test: SHP2 mutant inhibition assay (pNPP); assay type: biochemical; conditions: pH 7.0
SHP2/E508A, sequence (Q06124 224-528 E508A): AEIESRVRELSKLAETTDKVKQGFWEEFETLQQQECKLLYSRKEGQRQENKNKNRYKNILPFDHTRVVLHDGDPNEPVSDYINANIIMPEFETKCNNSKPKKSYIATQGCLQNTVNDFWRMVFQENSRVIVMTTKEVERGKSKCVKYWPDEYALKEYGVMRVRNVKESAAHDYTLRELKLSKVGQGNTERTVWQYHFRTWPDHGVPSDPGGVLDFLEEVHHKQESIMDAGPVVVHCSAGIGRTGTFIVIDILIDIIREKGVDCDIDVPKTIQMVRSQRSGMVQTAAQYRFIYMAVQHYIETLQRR

SHP2 [10] = target: SHP2 (Homo sapiens, UniProt Q06124); test: Covalent modification of SHP2 by QTOF ESI-MS / LC-MS; conditions: 100 μM compound; cefsulodin three hours, phenyl vinyl sulfone 10 minutes
Procedure: Agilent 6520 Accurate-Mass was used for the Q-TOF ESI-MS studies. Water and acetonitrile (both containing 0.1% formic acid) were used as eluent (80% water, flow 50 μL/min, run time 5 minutes). ESI positive mode was used with mass range from 300 to 1700, the gas temperature was 325° C., and vaporizer temperature was: […]. The sample was adjusted to have a concentration at 0.1 mg/mL, the injection volume of each sample was 1 μL. Mass hunter software was used for protein deconvolution data analysis to calculate the molecular weight of the protein.
as §3

[11] = Example 9: SHP2 catalytic domain 20 nM, pNPP 3 mM, pH 7.0, 25° C., read-out: IC50 SHP2

Structure (SMILES): O=C(Nc1ccc(I)cc1)C(=O)Nc1ccc(NC(=O)C(c2ccccc2)S(=O)(=O)O)cc1 (stereo not shown) [Compound 2, 2-((4-(2-((4-iodophenyl)amino)-2-oxoacetamido)phenyl)amino)-2-oxo-1-phenylethanesulfonic acid]
- IC50 (SHP2 [1]; [11]): 1.51 ± 0.06 µM
- Fold selectivity for SHP2 against PTPs examined (SHP2 [1]): at least 4 fold
- IC50 (PTPμ): > 10 µM
- H1975 cell proliferation (MTT) [2]: reduce H1975 cell proliferation in a dose dependent manner; also recorded: dose dependently inhibited; also recorded: significantly (**p<0.01) reduced cell proliferation
- MDA-MB-231 cell survival/growth (MTT) [3]: dose dependently inhibited; also recorded: significantly (**p<0.01) reduced cell survival
- ERK1/2 activity in SKBR3 cells in Matrigel ([4]; 20 μM): partial inhibition
- ERK1/2 activity in SKBR3 cells in Matrigel ([4]; 40 μM): barely detectable
- Effect on PMA-stimulated ERK1/2 phosphorylation [5]: no effect on PMA-stimulated ERK1/2 phosphorylation
- IC50 (PP5): > 10 µM
- SKBR3 cell growth in Matrigel (SKBR3 cells; 20 μM): partial inhibition
- SKBR3 cell growth in Matrigel (SKBR3 cells; 40 μM): almost completely absent
- Effect on EGF-mediated ERK1/2 phosphorylation [6]: reduced EGF-mediated ERK1/2 phosphorylation in a dose-dependent manner; also recorded: decrease the EGF-mediated ERK1/2 phosphorylation in a dose dependent manner

Structure (SMILES): O=C(O)c1cc2c(C#Cc3cccc(C(F)(F)F)c3)c(-c3ccccc3)oc2cc1O [Compound L01Z08]
- Anti-Mtb activity in infected macrophages ([7]; J774A.1 macrophages, low micromolar concentrations): potent anti-Mtb activity
- IC90 ([7]; Mycobacterium tuberculosis, J774, IC90 in macrophages activated with interferon-γ, read-out: In vitro anti-Mtb activity, Mtb-infected macrophages (IC90)): < 5 µM
- MIC (M. tuberculosis Erdman): > 10 µM
- Activity in standard MIC assay (M. tuberculosis H37Rv): inactive
- MIC (M. tuberculosis H37Rv; Mycobacterium tuberculosis, H37RV, minimum inhibitory concentration, read-out: In vitro anti-Mtb activity MABA-MIC H37Rv): > 10 µM
- Oral bioavailability and half-life in guinea pigs [8]: good oral bioavailability and half-life

Structure (SMILES): NC(=O)c1cc[n+](CC2=C(C(=O)O)N3C(=O)[C@@H](NC(=O)[C@@H](c4ccccc4)S(=O)(=O)[O-])[C@H]3SC2)cc1 [Cefsulodin, reference compound]
- IC50 (SHP2 [1]; [11]): 16.8 µM and 16.7 µM
- Ki (SHP2 [1]; Lineweaver-Burk, pNPP as substrate): 6.6 ± 0.2 µM
- Fold selectivity for SHP2 against PTPs examined (SHP2 [1]): greater than 10 fold
- IC50 (SHP2 [1]; incubated with SHP2 for 30 minutes prior to addition of pNPP, read-out: IC50 SHP2, inhibitor pre-mixed with SHP2): 16.8 ± 1.8 µM
- IC50 (SHP2 [1]; incubated with pNPP for 30 minutes prior to addition of SHP2, read-out: IC50 SHP2, inhibitor pre-mixed with pNPP): 17.5 ± 2 µM
- Mode of SHP2 inhibition (SHP2 [1]): competitive inhibitor
- Mode of SHP2 inhibition (SHP2 [1]; listed as cefsulodin): competitive and reversible SHP2 inhibitor
- IC50 (PTPμ): > 200 µM
- IC50 (SHP2/R362A; pNPP, pH 7.0): 46.5 ± 4.9 µM
- Fold increase of IC50 by replacement of R362 with alanine (SHP2/R362A; vs wild-type SHP2): 3 fold
- Degradation in pH 5.8 MES buffer ([9]; 20 mM MES, 250 mM NaCl, 1 mM EDTA, LC-MS): negligible
- Degradation in pH 7.4 CBTP buffer ([9]; 33 mM Citric acid, 67 mM BIS-TRIS Propane, LC-MS): obvious
- Degradation in CBTP buffer at pH 9.1 ([9]; LC-MS): further accelerated
- Time stable in MES buffer pH=5.8 ([9]; LC-MS): at least 2 days
- Time until compound was gone in CBTP buffer pH=9.1 ([9]; LC-MS): ≤ 12 h
- Time to complete degradation under crystallization condition ([9]; final pH=7.1, 20° C., with SHP2 and DTT): ≤ 2 days
- IC50 (SHP2/E508A): 19 ± 1 µM
- IC50 (PP5): > 200 µM
- Covalent adduct formation with SHP2 (QTOF ESI-MS) (SHP2 [10]): no covalent adduct formation
